Data on 4 compounds can be found in patent publication US6379965B1, “Multifunctional complexes for gene transfer into cells comprising a nucleic acid bound to a polyamine and having an endosome disruption agent” (American Home Products Corporation, priority 1994, dated 2002).

The subject of assay [1] is Muscle Cells. As to the kind of experiment: Transfection of muscle cells in vivo with pCMVβ plasmid, β-galactosidase staining of quadriceps. Also on record: species or system BALB-C mice. The conditions noted are these: 100 μg pCMVβ plasmid + 100 μg compound in 100 μL PBS, injected into rear quadriceps, approx. 96 hrs; control plasmid in 0.25% bupivicaine hydrochloride. The protocol:
Solutions were prepared containing 100 μg of pCMVβ plasmid and 100 μg of either N^4-octylspermidine, N^4-dodecylspermidine or N^4-(5-cholestene-3′β-oxycarbonyl)aminopentyl)spermidine, each in 100 μL of phosphate buffered saline. The plasmid solution (100 μL) was injected into the rear quadriceps of 6-12 week old BALB-C mice. The mice were sacrificed approximately 96 hrs later and the entire quadriceps muscle tissue was removed. The muscle was fixed with formalin for 2 hrs, and assayed for β-galactosidase activity using 5-bromo-4-chloro-3-indolyl-β-D-galactopyranoside (1 mg/mL in tris/EDTA pH 8.5). All three injections were scored as positive since the blue color was more intense than the control: injection of 100 μg of pCMVβ plasmid injected in 100 μL of 0.25% bupivicaine hydrochloride in citrate buffer pH 6.0.

Assay [2] has as its system Human hepatocellular carcinoma HuH7 cells. Nature of the assay: Transfection of adherent HuH7 cells in culture with pCMVβ plasmid, β-galactosidase activity. The conditions noted are these: HuH7 lysate; 0.5 μg pCMVβ plasmid + 0.5 μg tri-galactosyl-lysyl-lysyl aminopentyl spermidine + 2.5 μg cholesteryl-oxycarbonyl aminopentyl spermidine in 100 μL Optimem; after 30 min. In kind it is cell-based. On the procedure: Human hepatocellular carcinoma HuH7 cells were grown and seeded into a 96 well plate with 1-2×10^4 cells in 100 μL of minimal essential media α, modification with 10% serum. The plates were incubated in a 37° CO2 incubator until the cells were 60-80% confluent (approximately 24 hrs). The media was removed and the cells washed once with Optimem® (serum free media). Optimem® (100 μL) containing 0.5 μg of pCMVβ plasmid (from Clonetech, No. 6177-1), 0.5 μg of N^4-(5-[N^2,N^6-bis(β-3′-propionyl galactosyl-β1-4-thioglucoside)lysyl-N^6-(β-3′-propionyl galactosyl-β1-4-thioglucoside)lysyl]aminopentyl)-spermidine and 2.5 μg of N^4-(5-cholestene-3′β-oxycarbonyl)-aminopentyl)spermidine was added to the cells. The cells were incubated with the mixture for 4 hrs in a 37° CO2 incubator; thereafter 100 μL of media containing 20% serum was added and the incubation continued for an additional 20 hrs. Cells lysed with 0.5% NP-40 in 140 mM NaCl, 10 mM tris, 1.5 mM MgCl2 were assayed for β-galactosidase activity using o-nitrophenyl β-D-galactopyranoside, and gave A405=1.35 after 30 min. Cells grown in 6 well plates (25 mm diameter) and treated similarly were fixed with 2% paraformaldehyde and assayed for β-galactosidase activity using 5-bromo-4-chloro-3-indolyl β-D-galactopyranoside (J. Sambrook, et al., Molecular Cloning: A Laboratory Manual, Cold Spring Harbor, 1989).

The subject of assay [3] is Liver Cells. Nature of the assay: Transfection of liver cells in vivo with pHBVSA plasmid, serum hepatitus B surface antigen immunoassay. Also on record: species or system BALB-C mice. The following applies: 10 μg pHBVSA plasmid + 5 μg tri-galactosyl compound + 25 μg cholesteryl compound in 100 μL PBS, tail vein; 48 hrs post-injection; example in present tense. On the procedure:
[…] The plasmid solution (100 μL) is injected into the tail vein of 6-12 week old BALB-C mice. The mice are sacrificed 48-120 hrs later and the serum tested for hepatitus B surface antigen using a commercial enzyme-linked immunoassay.

`CCCCCCCCCCCCN(CCCN)CCCCN.Cl.Cl.Cl` [N^4-dodecylspermidine, N^4-dodecylspermidine trihydrochloride]: the “β-galactosidase staining of quadriceps muscle, score versus control” value in assay [1] is recorded as “positive”.

Consider `CC(C)CCC[C@@H](C)[C@H]1CC[C@H]2[C@@H]3CC=C4C[C@@H](OC(=O)NCCCCCN(CCCN)CCCCN)CC[C@]4(C)[C@H]3CC[C@]12C.Cl` [N^4-(5-cholestene-3′β-oxycarbonyl)aminopentyl spermidine hydrochloride Salt], for which, in assay [1], the “β-galactosidase staining of quadriceps muscle, score versus control” value is given as “positive”. In assay [2], the “β-galactosidase activity using o-nitrophenyl β-D-galactopyranoside, A405” value came to 1.35. The “production of hepatitus B surface antigen in serum” value in assay [3] is “greater than the positive control”. For the compound N^4-octylspermidine, the “β-galactosidase staining of quadriceps muscle, score versus control” value in assay [1] is on record as “positive”. Consider “4-[(N^2-[N^2,N^6-bis(3-[4-O(β-D-galactopyranosyl)-β-D-glucopyranosylthio]propionyl)lysyl]N^6-(3-[4-O-(β-D-galactopyranosyl)-β-D-glucopyranosylthio]-propionyl)lysinamido)pentyl]-1,8-diamino-4-azaoctane, acetate salt”, for which the “β-galactosidase activity using o-nitrophenyl β-D-galactopyranoside, A405” value in assay [2] is recorded as 1.35. Further, the “production of hepatitus B surface antigen in serum” value in assay [3] is listed as “greater than the positive control”.
